Measurements taken from US4130644A, “7-Acylamine-3-(sulfoalkyl substituted oxadiazolylthiomethyl) cephalosporins and pharmaceutical compositions containing them” (SmithKline Corporation, priority 1977, dated 1978).
In brackets after ≈: the same amount, converted by molar mass.

Columns and labels:
[1] = system: E. coli HH 33779; test: in vitro minimum inhibitory concentration (MIC); assay type: cell-based; settings: Escherichia coli, HH33779; E. coli HH 33779, in vitro
Experimental: (§1) The compounds of Formula I have exceptional antibacterial activity against both Gram-positive and Gram-negative organisms. Minimum inhibitory concentrations (MIC's) range from 0.2 to <200 μg./ml. in in vitro testing. Test results for the compound 7-D-mandelamido-3-(5-sulfomethyl-1,3,4-oxadiazol-2-ylthiomethyl)-3-cephem- 4-carboxylic acid are given below: […]

[2] = system: E. coli SK 12140; test: in vitro minimum inhibitory concentration (MIC); assay type: cell-based; settings: Escherichia coli, SK12140; E. coli SK 12140, in vitro
Experimental: as §1

[3] = system: Entero aerog. ATCC 13048; test: in vitro minimum inhibitory concentration (MIC); assay type: cell-based; settings: Entero aerog. ATCC 13048, in vitro
Experimental: as §1

[4] = system: Entero. cloacae HH 31254; test: in vitro minimum inhibitory concentration (MIC); assay type: cell-based; settings: Enterobacter cloacae, HH31254; Entero. cloacae HH 31254, in vitro
Experimental: as §1

[5] = system: Kleb. pneumo. SK 1200; test: in vitro minimum inhibitory concentration (MIC); assay type: cell-based; settings: Kleb. pneumo. SK 1200, in vitro
Experimental: as §1

[6] = system: Kleb. pneumo. SK 4200; test: in vitro minimum inhibitory concentration (MIC); assay type: cell-based; settings: Kleb. pneumo. SK 4200, in vitro
Experimental: as §1

[7] = system: Proteus morgani 179; test: in vitro minimum inhibitory concentration (MIC); assay type: cell-based; settings: Proteus morgani 179, in vitro
Experimental: as §1

[8] = system: Pseudo. aerug. HH 63; test: in vitro minimum inhibitory concentration (MIC); assay type: cell-based; settings: Pseudo. aerug. HH 63, in vitro
Experimental: as §1

[9] = system: S. aureus HH 127; test: in vitro minimum inhibitory concentration (MIC); assay type: cell-based; settings: Staphylococcus aureus, HH127; S. aureus HH 127, in vitro
Experimental: as §1

[10] = system: S. aureus SK 23390; test: in vitro minimum inhibitory concentration (MIC); assay type: cell-based; settings: Staphylococcus aureus, SK23390; S. aureus SK 23390, in vitro
Experimental: as §1

[11] = system: S. villaluz SK 70390; test: in vitro minimum inhibitory concentration (MIC); assay type: cell-based; settings: S. villaluz SK 70390, in vitro
Experimental: as §1

[12] = system: Salmonella ATCC 12176; test: in vitro minimum inhibitory concentration (MIC); assay type: cell-based; settings: ATCC12176; Salmonella ATCC 12176, in vitro
Experimental: as §1

[13] = system: Serrata marc. ATCC 13880; test: in vitro minimum inhibitory concentration (MIC); assay type: cell-based; settings: Serrata marc. ATCC 13880, in vitro
Experimental: as §1

[14] = system: Shigella HH 117; test: in vitro minimum inhibitory concentration (MIC); assay type: cell-based; settings: HH117; Shigella HH 117, in vitro
Experimental: as §1

[15] = system: Strep. faecalis HH 34358; test: in vitro minimum inhibitory concentration (MIC); assay type: cell-based; settings: Enterococcus faecalis, HH34358; Strep. faecalis HH 34358, in vitro
Experimental: as §1

[16] = system: E. coli 12140; test: in vivo mouse protection test; settings: Escherichia coli, sc, E. coli 12140, subcutaneous injection
From the text: (§2) 4200 upon subcutaneous injection.

[17] = system: Kleb. pneumo. 4200; test: in vivo mouse protection test; settings: sc, Kleb. pneumo. 4200, subcutaneous injection
From the text: as §2

`O=C(O)C1=C(CSc2nnc(CS(=O)(=O)O)o2)CS[C@@H]2[C@H](NC(=O)[C@H](O)c3ccccc3)C(=O)N12` [7-D-Mandelamido-3-(5-sulfomethyl-1,3,4-oxadiazol-2-ylthiomethyl)-3-cephem-4-carboxylic acid] showed an MIC [1] of 3.1 µg/mL (≈ 5.71 µM), an MIC [2] of 1.6 µg/mL (≈ 2.95 µM) and an MIC [3] of 3.1 µg/mL (≈ 5.71 µM). It also gave an MIC [4] of 1.6 µg/mL (≈ 2.95 µM), an MIC [5] of 0.8 µg/mL (≈ 1.47 µM) and an MIC [6] of 1.6 µg/mL (≈ 2.95 µM). The MIC [7] was 25 µg/mL (≈ 46.1 µM), the MIC [8] was > 200 µg/mL and the MIC [9] was 3.1 µg/mL (≈ 5.71 µM). For the same molecule, the MIC [10] was 1.6 µg/mL (≈ 2.95 µM), the MIC [11] was 200 µg/mL (≈ 369 µM) and the MIC [12] was 1.6 µg/mL (≈ 2.95 µM). The MIC [13] was 100 µg/mL (≈ 184 µM), the MIC [14] was 0.8 µg/mL (≈ 1.47 µM) and the MIC [15] was 50 µg/mL (≈ 92.2 µM). The ED50 [16] was 1.56 mg/kg and the ED50 [17] was 1.56 mg/kg.
